# In patent US20060251689A1, “Treatment or prevention of pruritus” (Astion Development A/S, priority 2005, published 2006):
# Entries after “also recorded” stand apart in the source; their conditions may differ.
# What was measured:
# [1] = test system: oxazolone induced ear inflammation in mice; assay: Oxazolone induced mouse ear oedema assay; assay type: in vivo
# Protocol: This screening method is commonly employed for screening and evaluation of anti-inflammatory drugs, in particular with respect to the inflammation seen in contact dermatitis. Betamethasone-17 valerate was used as the positive control. […] Betamethason was administered topically in quantities of 20 μg/ear. Betamethason was applied in the commercial form Celeston valerate® 0.1%. All groups were immunised with 20 μl oxazolone, 1.6% in ethanol 96% (w/v) on the left and the right ear. The ear thickness of all mice on both the left and right side was measured with an electronic measuring gauge. All groups were challenged with 20 μl oxazolone (1.6% in ethanol 96% (w/v)) on the left ear and the right ear. Vehicle (acetone) or test article solutions were administered 20 minutes before and 20 minutes after oxazolone challenge. 24 hours after oxazolone challenge the ear thickness of all mice was measured with an electronic measuring gauge. Mean thickness of the ears and standard deviations were calculated. Ear swelling was calculated as the difference between the ear thickness day 7 and day 8. […] Differences in ear swelling between the vehicle treated group and the other groups were tested for significance employing a non-parametric statistical method of analysis, the Mann-Whitney U test. The required level of significance was p<0.05. […] Both test articles were applied in a dose of 500 μg/ear and dissolved in 96% ethanol. Betamethason, as the positive control was administered topically in quantities of 20 μg/ear.
# [2] = target: T1, Protein Tyrosine Kinase, SYK (Homo sapiens, UniProt P43405); assay: enzyme assay, Protein Tyrosine Kinase SYK (MDS Pharma Service No 155761); assay type: biochemical; settings: in words, comparison
# T1 construct: purchased MDS Pharma Services (printed once as 'MSD Pharma Services') 155761
# Protocol: (§1) The enzyme assays were conducted by MSD Pharma Services.
# Phosphodiesterase PDE IV = assay: enzyme assay, Phosphodiesterase PDE IV (MDS Pharma Service No 154000); assay type: biochemical; settings: in words, comparison
# [3] = target: T2, Protein Tyrosine Kinase, ZA70 (ZAP-70) (Homo sapiens, UniProt P43403); assay: enzyme assay, Protein Tyrosine Kinase ZA70 (ZAP-70) (MDS Pharma Service No 155987); assay type: biochemical; settings: in words, comparison
# T2 construct: purchased MDS Pharma Services (printed once as 'MSD Pharma Services') 155987
# T2 sequence (P43403 1-619): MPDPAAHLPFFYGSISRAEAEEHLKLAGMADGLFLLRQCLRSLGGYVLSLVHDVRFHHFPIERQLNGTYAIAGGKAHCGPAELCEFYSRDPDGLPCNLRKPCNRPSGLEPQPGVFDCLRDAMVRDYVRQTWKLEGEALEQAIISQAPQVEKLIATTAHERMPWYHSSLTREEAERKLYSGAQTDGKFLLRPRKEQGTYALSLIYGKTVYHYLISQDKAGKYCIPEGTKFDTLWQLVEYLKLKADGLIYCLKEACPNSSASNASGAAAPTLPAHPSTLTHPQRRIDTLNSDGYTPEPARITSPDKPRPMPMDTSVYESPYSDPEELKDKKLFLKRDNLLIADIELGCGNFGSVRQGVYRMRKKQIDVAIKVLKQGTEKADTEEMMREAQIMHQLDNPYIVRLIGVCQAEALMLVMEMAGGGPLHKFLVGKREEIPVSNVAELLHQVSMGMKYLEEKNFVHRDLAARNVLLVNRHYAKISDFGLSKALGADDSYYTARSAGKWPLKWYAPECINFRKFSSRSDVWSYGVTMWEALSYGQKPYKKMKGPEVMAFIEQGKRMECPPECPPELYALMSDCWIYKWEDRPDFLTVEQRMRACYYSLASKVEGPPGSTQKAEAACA
# Protocol: as §1
# skin = settings: reported in the literature; cited from earlier work
# [4] = test system: Albino guinea pigs of Dunkin-Hartley strain; settings: guinea pig, in vivo
# Protocol: Test for skin sensitization is carried out according to the Magnusson and Kligman method (J. Invest. Dermatol. 1969. 52, 268-276) and in accordance with O.E.C.D. Guideline No. 406 of Jul. 17th, 1992, and the test method B.6 of the 96/54 E.E.C Directive.
# Albino guinea pigs of Dunkin-Hartley strain were exposed to the test item after an acclimatisation period of at least five days.
# The Maximum Non Necrotizing Concentration (M.N.N.C.) was determined by injecting by intradermal route the following concentrations: 2.5%, 1.25%, 0.625%, 0.3125%, 0.1562% and 0.078% diluted in physiological saline solution.
# Pre-Maximum Non Irritant Concentration (pre-M.N.I.C.) was determined by application of the test item under an occlusive dressing during 24 hours, at the following concentrations: 2.5%, 1.25%, 0.625%, 0.3125% diluted in physiological saline solution.
# Maximum Non Irritant Concentration (M.N.I.C.) was determined by initially establishing an induction phase by intradermal injection with a physiological saline solution and by topical application of distilled water followed by a 18-day rest phase. In the challenge phase where the test item is under occlusive dressing for 24 hours, the test item was applied to the skin of the Albino guinea pigs at the following concentrations: 2.5%, 1.25%, 0.625%, 0.3125% diluted in physiological saline solution.
# undamaged skin area = assay: Acute dermal irritation; assay type: in vivo
# Protocol: The sample was applied at a dose of 0.5 mL, on an undamaged skin area of the right flank of each animal. The patch was secured in position with a strip of surgical adhesive tape.
# On the left flank an untreated area served as the control.
# The skin reactions were evaluated after 1 hour and then after 24, 48 and 72 hours following removal of the patch according to the following grading scale:
# Erythema (0: No erythema, 1: Slight(barelyperceptible)erythema, 2: Definite erythema, 3: Moderate to severe erythema, 4: Severe erythema (purpie) with formation of eschars (deep lesions) preventing erythema from being grading).
# Oedema (0: No oedema, 1: Very slight (barely perceptible) oedema, 2: Slight oedema (contour clearly defined), 3: Moderate oedema (thickness), 4: Severe oedema (thickness greater than 1 mm, surface larger than zone of application)
# [5] = test system: moderate to severe inflammation following treatment with cryotherapy; settings: topically applied; cited from earlier work
# [6] = test system: experimental contact dermatitis; settings: topically applied; cited from earlier work
structure (smiles),measurement,setting,value
CCCCC(=O)O[C@]1(C(=O)CO)[C@@H](C)C[C@H]2[C@@H]3CCC4=CC(=O)C=C[C@]4(C)[C@@]3(F)[C@@H](O)C[C@@]21C [Betamethasone 17-valerate],% inhibition of ear swelling,"[1]; 20 μg/ear topical (Celeston valerate 0.1%), 24 hours after challenge",66%
CCCCOc1ccc(CC(=O)NO)cc1 [Bufexamac],inhibitory effect on Protein Tyrosine Kinase SYK,[2],only exhibits inhibitory effect on the PDE-IV enzyme
same,inhibitory effect on the PDE-IV enzyme,Phosphodiesterase PDE IV,inhibitory effect
same,inhibitory effect on Protein Tyrosine Kinase ZAP-70,[3],only exhibits inhibitory effect on the PDE-IV enzyme
same,cutaneous side effects,skin,cause contact allergy; also recorded: major contact allergens
O=C(O)Cc1ccccc1Nc1c(Cl)cccc1Cl [Diclofenac],cutaneous side effects,skin,irritant-type contact dermatitis may develop
CC(C(=O)O)c1cccc(C(=O)c2ccccc2)c1 (stereo not shown) [Ketoprofen],cutaneous side effects,skin,major contact allergens
O=C(O)CCc1nc(-c2ccccc2)c(-c2ccccc2)o1 [Monoethanolamine Oxaprozin],inhibition of ear swelling (conclusion in words),[1]; 250-1000 μg/ear topical,dose dependent and highly significant inhibition
same,"sensitization, macroscopic cutaneous reactions in the challenge phase",[4],No macroscopic cutaneous reactions attributable to allergy
"O=C(O)CCc1nc(-c2ccccc2)c(-c2ccccc2)o1 [Oxaprozin, 4,5-diphenyl-2-oxazole-propionic acid]",cutaneous reactions (erythema and oedema),"undamaged skin area; 2.5% by weight in water (monoethanolamine salt), 0.5 mL, 1, 24, 48 and 72 hours",no cutaneous reactions
same,erythema on the treated area,"undamaged skin area; 5% by weight in water (monoethanolamine salt), 0.5 mL, reading time 1 hour",slight erythema
same,reversibility of the erythema,"undamaged skin area; 5% by weight, between the 2nd and the 3rd day of the test",totally reversible
same,inhibition of the formation of ear oedema,"[1]; Example 7, 500 μg/ear dissolved in 96% ethanol",statistically significant inhibition
CC(=O)Oc1ccccc1C(=O)O [aspirin],cutaneous side effects,skin,may induce urticarial reactions
CCC(=O)O[C@]1(C(=O)CCl)[C@@H](C)C[C@H]2[C@@H]3CCC4=CC(=O)C=C[C@]4(C)[C@@]3(F)[C@@H](O)C[C@@]21C [clobetasol propionate],relieving the erythema and oedema,[5],proved to have effect
COc1ccc2c(c1)c(CC(=O)O)c(C)n2C(=O)c1ccc(Cl)cc1 [indomethacin],relieving the erythema and oedema,[5],poor effect
same,response in an animal model of contact dermatitis,[6],has been shown to respond
same,cutaneous side effects,skin,may induce urticarial reactions
CN1C(C(=O)Nc2ccccn2)=C(O)c2ccccc2S1(=O)=O [piroxicam],cutaneous side effects,skin,phototoxic or photoallergic dermatitis
